Data from ChEMBL document CHEMBL1150725, “Cytotoxic and antimicrobial alkaloids from the Fijian sponge Xestospongia caycedoi” (J Nat Prod, 1987).
Converted amounts (≈) assume the structure as drawn.

Key:
[1] = test system: L1210; experiment: Cytotoxicity against mouse L1210 cells; type: functional, cell-based
[2] = test system: Staphylococcus aureus; experiment: Antimicrobial activity against Staphylococcus aureus at 100 ug/disk; type: functional; details: read-out: IZ

Question: How did the IC50 [1] turn out when COC1=C(C)C(=O)c2ccnc(CO)c2C1=O [RENIEROL] was run?
Answer: Its IC50 is 3 µg/mL (≈ 12.9 µM).

Question: And the zone of inhibition at 100 µg/disc [2]?
Answer: Its zone of inhibition at 100 µg/disc is 10 mm.
